The results in this text go back to patent US20060147397A1, “Composition for preparation for external use on skin and method of using the same” (Kose Corporation, priority 2002, published 2006).

In series [1] the test system is Murine cultured B16 melanoma cells. Briefly: Melanin generation/formation suppression test based on cell culture (degree of whiteness). Details: key: ++: distinctively stronger whiteness over the reference; +: apparently stronger whiteness over the reference; ±: slightly stronger whiteness over the reference; −: remained unchanged. The protocol:
Murine cultured B16 melanoma cells were used. An appropriate quantity of a 10% FBS-containing MEM medium was placed in two 6-well plates, the B16 melanoma cells were seeded therein and allowed to stand at 37° C. under a carbon dioxide concentration of 5 vol %. Next day, a sample preparation solution was added and mixed therewith so as to adjust the final concentrations of the Cistus ladaniferus L. extract obtained in Example 1, and labdenic acids and methyl esters and ethyl esters thereof obtained in Example 2 to 0 (reference), 5 and 10 μg/mL, and of lily extract (product of Maruzen Pharmaceuticals Co., Ltd.), which is a known whitening agent, to 0 and 100 μg/mL. The medium was exchanged on the fifth day of culture, and the sample preparation solution was added again. The medium was removed next day, the cells were collected from one plate after washing them using a phosphate buffer (pH7), and degree of whitening of the cultured B16 melanoma cells was evaluated according to the criteria shown below. […]
• ++: distinctively stronger whiteness over the reference; • +: apparently stronger whiteness over the reference; • ±: slightly stronger whiteness over the reference; and • −: remained unchanged.
Murine cultured B16 melanoma cells were used. An appropriate quantity of a 10% FBS-containing MEM medium was placed in two 6-well plates, the B16 melanoma cells were seeded therein and allowed to stand at 37° C. under a carbon dioxide concentration of 5 vol %. Next day, a sample preparation solution was added and mixed therewith so as to adjust the final concentrations of the Cistus ladaniferus L. extract obtained in Example 1, and labdenic acids and methyl esters and ethyl esters thereof obtained in Example 2 to 0 (reference), 5 and 10 μg/mL, and of Glycyrrhiza glabra extract (product of Maruzen Pharmaceuticals Co., Ltd.), which is a known whitening agent, to 0 and 100 μg/mL. The medium was exchanged on the fifth day of culture, and the sample preparation solution was added again. The medium was removed next day, the cells were collected from one plate after washing them using a phosphate buffer (pH7), and degree of whitening of the cultured B16 melanoma cells was evaluated according to the criteria shown below.

Series [2] shares this test system. Put plainly: Cell survival rate test based on cell culture (crystal violet). The note with it: mouse, 5 days, 10 μg/mL. As to the method:
Murine cultured B16 melanoma cells were used. An appropriate quantity of a 10% FBS-containing MEM medium was placed in two 6-well plates, the B16 melanoma cells were seeded therein and allowed to stand at 37° C. under a carbon dioxide concentration of 5 vol %. Next day, a sample preparation solution was added and mixed therewith so as to adjust the final concentrations of the Cistus ladaniferus L. extract obtained in Example 1, and labdenic acids and methyl esters and ethyl esters thereof obtained in Example 2 to 0 (reference), 5 and 10 μg/mL, and of lily extract (product of Maruzen Pharmaceuticals Co., Ltd.), which is a known whitening agent, to 0 and 100 μg/mL. The medium was exchanged on the fifth day of culture, and the sample preparation solution was added again. The medium was removed next day, the cells were collected from one plate after washing them using a phosphate buffer (pH7), and degree of whitening of the cultured B16 melanoma cells was evaluated according to the criteria shown below.
On the other plate, the cells were fixed with formalin, and dyed by adding an 1% crystal violet solution. Cell survival rates for the individual sample concentrations were measured using a monocellator (product of Olympus Corporation).
Murine cultured B16 melanoma cells were used. An appropriate quantity of a 10% FBS-containing MEM medium was placed in two 6-well plates, the B16 melanoma cells were seeded therein and allowed to stand at 37° C. under a carbon dioxide concentration of 5 vol %. […] The medium was removed next day, the cells were collected from one plate after washing them using a phosphate buffer (pH7), and degree of whitening of the cultured B16 melanoma cells was evaluated according to the criteria shown below.

Series [3] relates to Human neonatal fibroblast NB1RGB. Put plainly: Cell activation test based on cell culture (cell proliferation ratio). The protocol: Human neonatal fibroblast NB1RGB was used. An appropriate quantity of medium was placed in a 24-well plate, the fibroblast NB1RGB was seeded therein and allowed to stand at 37 ° C. under a carbon dioxide concentration of 5 vol %. Next day, a sample preparation solution was added and mixed therewith so as to adjust the final concentrations of the Cistus ladaniferus L. extract obtained in Example 1, and labdenic acids and methyl esters and ethyl esters thereof obtained in Example 2 to 0 (reference), 5 and 10 μg/mL, and of Panax ginseng extract (product of Maruzen Pharmaceuticals Co., Ltd.), which is a known cell activator, to 0 and 100 μg/mL. The medium was exchanged on the fourth day of culture, and the sample preparation solution was added again. The medium was removed next day, the cells were washed using a phosphate buffer and collected, and evaluated in terms of cell proliferation rate based on comparison of the number of fibroblast NB1RGB cells grown in the individual sample preparation solutions with that of the reference. […]
The number of cells grown in each sample preparation solution was compared with the number of cells of the reference, and cell activation effect was evaluated using cell proliferation ratio as an index. The number of cells was counted using a blood cell counter plate.
Human neonatal fibroblast NB1RGB was used. An appropriate quantity of medium was placed in a 24-well plate, the fibroblast NB1RGB was seeded therein and allowed to stand at 37 ° C. under a carbon dioxide concentration of 5 vol %. Next day, a sample preparation solution was added and mixed therewith so as to adjust the final concentrations of the Cistus ladaniferus L. extract obtained in Example 1, and labdenic acids and methyl esters and ethyl esters thereof obtained in Example 2 to 0 (reference), 5 and 10 μg/mL, and of cactus extract, which is a known cell activator, to 0 and 100 μg/mL. The medium was exchanged on the fourth day of culture, and the sample preparation solution was added again. The medium was removed next day, the cells were washed using a phosphate buffer and collected, and evaluated in terms of cell proliferation rate based on comparison of the number of fibroblast NB1RGB cells grown in the individual sample preparation solutions with that of the reference.

Series [4] deals with Murine cultured B16 melanoma cells. Put plainly: Melanin generation/formation suppression test based on cell culture (degree of whiteness). Details: key: ++: distinctively stronger whiteness over the reference; +: apparently stronger whiteness over the reference; ±: slightly stronger whiteness over the reference; −: remained unchanged. This is another data set of the same source.

[5] abbreviates: final concentration 5 μg/mL + lily extract 100 μg/mL.
The mark [6] stands for this setting: final concentration 10 μg/mL, lily extract 0 μg/mL.
The mark [7] stands for this setting: final concentration 5 μg/mL + Panax ginseng extract 100 μg/mL.
[8] abbreviates: final concentration 5 μg/mL, additional concentration of cactus extract 100 μg/mL, vs reference.
The mark [9] stands for this setting: final concentration 10 μg/mL, Panax ginseng extract 0 μg/mL.
The mark [10] stands for this setting: final concentration 10 μg/mL, cactus extract 0 μg/mL, vs reference.
Setting [11] is: final concentration 5 μg/mL + Glycyrrhiza glabra extract 100 μg/mL.
[12] abbreviates: final concentration 10 μg/mL, Glycyrrhiza glabra extract 0 μg/mL.

For the compound `CC1=C(CCC(C)CC(=O)O)C2(C)CCCC(C)(C)C2CC1` (stereo not drawn) [Compound 1, labd-8-en-15-oic acid], the Degree of whiteness result in series [1] (setting [5]) is given as “++”; in series [1] (setting [6]), “+”; in series [4] (setting [11]), “++”; in series [4] (setting [12]), “+”. In series [2], this compound yielded a Cell survival rate of 94%. Besides, the Cell-activation rate in series [3] (setting [7]) came out at 329%; in series [3] (setting [8]), 310%; in series [3] (setting [9]), 128%; in series [3] (setting [10]), 128%.

In the case of `CC1=CCC2C(C)(C)CCCC2(C)C1CCC(C)CC(=O)O` (stereo not drawn) [Compound 4, labd-7-en-15-oic acid], the Degree of whiteness result in series [1] (setting [5]) is given as “++”; in series [1] (setting [6]) it was “+”; in series [4] (setting [11]), “++”; in series [4] (setting [12]) it was “+”. Moreover, the Cell survival rate in series [2] is recorded as 93%. Further, the Cell-activation rate in series [3] (setting [7]) came out at 322%; in series [3] (setting [8]) it was 315%; in series [3] (setting [9]) it was 130%; in series [3] (setting [10]), 130%.

Take `C=C1CCC2C(C)(C)CCCC2(C)C1CCC(C)CC(=O)O` (stereo not drawn) [Compound 7, labd-8(17)-en-15-oic acid]: the Degree of whiteness result in series [1] (setting [5]) is reported as “++”; in series [1] (setting [6]), “+”; in series [4] (setting [11]) it was “++”; in series [4] (setting [12]), “+”. For the same compound, the Cell survival rate in series [2] was determined as 98%. Besides, the Cell-activation rate in series [3] (setting [7]) is given as 333%; in series [3] (setting [8]) it was 170%; in series [3] (setting [9]) it was 135%; in series [3] (setting [10]), 135%.
